Test results from the CheMixHub ionic liquid set.
Values joined by “and” are separate entries in the source; they are usually repeats but may differ in a detail not shown here. Identical values can stand only once. ± gives the uncertainty stated by the source.

Test: xn = mol fraction of the nth substance listed
Settings: 298.15 K, 101.3 kPa

OC[C@H]1O[C@H](O[C@H]2[C@H](O)[C@@H](O)C(O)O[C@@H]2CO)[C@H](O)[C@@H](O)[C@@H]1O (stereo partly drawn) + O + CCCC[n+]1ccn(C)c1.[Cl-]
Settings	electrical conductivity
x1 = 0.003591, x3 = 5.29e-06	0.00303 ± 3e-05 S/m
x1 = 0.003591, x3 = 8.39e-06	0.00457 ± 5e-05 S/m
x1 = 0.003591, x3 = 1.182e-05	0.00625 ± 6e-05 S/m
x1 = 0.003591, x3 = 1.516e-05	0.00787 ± 8e-05 S/m
x1 = 0.003591, x3 = 1.84e-05	0.00941 ± 9e-05 S/m
x1 = 0.003591, x3 = 2.179e-05	0.011 ± 0.00011 S/m
x1 = 0.003591, x3 = 2.475e-05	0.01239 ± 0.00012 S/m
x1 = 0.003591, x3 = 2.776e-05	0.0138 ± 0.00014 S/m
x1 = 0.003591, x3 = 3.087e-05	0.01519 ± 0.00015 S/m
x1 = 0.003591, x3 = 3.39e-05	0.0165 ± 0.00017 S/m
x1 = 0.003591, x3 = 3.679e-05	0.0179 ± 0.00018 S/m
x1 = 0.007156, x3 = 7.85e-06	0.00369 ± 4e-05 S/m
x1 = 0.007156, x3 = 1.182e-05	0.00532 ± 5e-05 S/m
x1 = 0.007156, x3 = 1.573e-05	0.00691 ± 7e-05 S/m
x1 = 0.007156, x3 = 1.984e-05	0.00855 ± 9e-05 S/m
x1 = 0.007156, x3 = 2.38e-05	0.01011 ± 0.0001 S/m
x1 = 0.007156, x3 = 2.785e-05	0.0117 ± 0.00012 S/m
x1 = 0.007156, x3 = 3.214e-05	0.01336 ± 0.00013 S/m
x1 = 0.007156, x3 = 3.627e-05	0.0149 ± 0.00015 S/m
x1 = 0.007156, x3 = 4.07e-05	0.0166 ± 0.00017 S/m
x1 = 0.007156, x3 = 4.483e-05	0.01815 ± 0.00018 S/m
x1 = 0.0107, x3 = 7.55e-06	0.0031 ± 3e-05 S/m
x1 = 0.0107, x3 = 1.145e-05	0.00447 ± 5e-05 S/m
x1 = 0.0107, x3 = 1.56e-05	0.0059 ± 6e-05 S/m
x1 = 0.0107, x3 = 1.953e-05	0.00725 ± 7e-05 S/m
x1 = 0.0107, x3 = 2.385e-05	0.0087 ± 9e-05 S/m
x1 = 0.0107, x3 = 2.86e-05	0.01028 ± 0.0001 S/m
x1 = 0.0107, x3 = 3.328e-05	0.0118 ± 0.00012 S/m
x1 = 0.0107, x3 = 3.79e-05	0.01332 ± 0.00013 S/m
x1 = 0.0107, x3 = 4.278e-05	0.0149 ± 0.00015 S/m
x1 = 0.0107, x3 = 4.74e-05	0.01635 ± 0.00016 S/m
x1 = 0.0107, x3 = 5.2e-05	0.0178 ± 0.00018 S/m
x1 = 0.01421, x3 = 1.044e-05	0.00364 ± 4e-05 S/m
x1 = 0.01421, x3 = 1.582e-05	0.0052 ± 5e-05 S/m
x1 = 0.01421, x3 = 2.09e-05	0.00666 ± 7e-05 S/m
x1 = 0.01421, x3 = 2.625e-05	0.00817 ± 8e-05 S/m
x1 = 0.01421, x3 = 3.215e-05	0.00982 ± 0.0001 S/m
x1 = 0.01421, x3 = 3.779e-05	0.01136 ± 0.00011 S/m
x1 = 0.01421, x3 = 4.365e-05	0.013 ± 0.00013 S/m
x1 = 0.01421, x3 = 4.958e-05	0.0146 ± 0.00015 S/m
x1 = 0.01421, x3 = 5.535e-05	0.01611 ± 0.00016 S/m
x1 = 0.0177, x3 = 7.16e-06	0.00235 ± 2e-05 S/m
x1 = 0.0177, x3 = 1.43e-05	0.00413 ± 4e-05 S/m
x1 = 0.0177, x3 = 2.14e-05	0.00587 ± 6e-05 S/m
x1 = 0.0177, x3 = 2.851e-05	0.0076 ± 8e-05 S/m
x1 = 0.0177, x3 = 3.535e-05	0.00922 ± 9e-05 S/m
x1 = 0.0177, x3 = 4.182e-05	0.0107 ± 0.00011 S/m
x1 = 0.0177, x3 = 4.861e-05	0.01232 ± 0.00012 S/m
x1 = 0.0177, x3 = 5.526e-05	0.0138 ± 0.00014 S/m
x1 = 0.0177, x3 = 6.177e-05	0.01534 ± 0.00015 S/m
x1 = 0.0177, x3 = 6.769e-05	0.0167 ± 0.00017 S/m
x1 = 0.0177, x3 = 7.386e-05	0.01804 ± 0.00018 S/m
x1 = 0.02116, x2 = 0.9788	0.0134 S/m and 0.0146 S/m and 0.0157 S/m
